Measured values published in patent publication US4462941A, “Dynorphin amide analogs” (The Regents of the University of California, priority 1982, dated 1984).
Where no end group is shown, it is not given here.

Columns and labels:
[1] = tested on: morphine tolerant animals; assay: Tail-flick analgesia, morphine s.c. with or without peptide i.c.v., morphine tolerant animals; type: in vivo; conditions: tolerant mice
Method: (§1) Male simonesen ICR mice (Gilroy, CA) weighing between 20-25 g were housed for at least one day prior to experimentation, and used within 5 days. Each mouse was used only once.
(§2) Analgesia was measured by the tail-flick method of D'Amour and Smith, J. Pharmac. Exp. Ther., 72, pp. 74-79 (1941), incorporated herein by reference, as modified by Tulunay and Takemori, J. Pharmac. Exp. Ther., 190, pp. 395-400 (1974), incorporated herein by reference. […] Nonresponding animals were removed from the heat stimulus when reaction times exceeded 10 sec. to avoid the tail damage.
(§3) Drugs were injected 30 min. prior to testing, unless otherwise indicated.
The animals were separated into two groups. […] Exp. Ther., 167, pp. 1-8 (1969), incorporated herein by reference.
(§4) The ED50 values, their 95% confidence limits and significance of the potency ratio between two ED50 values were determined by the method of Litchfield and Wilcoxon, J. Pharmac. Exp. Ther., 96: 99-113 (1949), incorporated herein by reference.

[2] = tested on: mouse vas deferens; conditions: read-out: IC50 inhibiting the twitch of the mouse vas deferens
[3] = tested on: mice; assay: Analgesic activity of the peptide by itself (mouse tail-flick)
Method: as §2, §3

[4] = compared with dynorphin(1-13)
[5] = tested on: morphine tolerant animals; assay: Tail-flick analgesia, β-endorphin i.c.v. with or without dynorphin(1-13) i.c.v., morphine tolerant animals; type: in vivo; conditions: tolerant mice
Source text: as §1
The animals were separated into two groups. The one group was morphine tolerant (e.g., addicted); the other group was naive (e.g., not addicted). […] Exp. Ther., 167, pp. 1-8 (1969), incorporated herein by reference.
as §4

Molecule: CN1CC[C@]23c4c5ccc(O)c4O[C@H]2[C@@H](O)C=C[C@H]3[C@H]1C5.O=S(=O)(O)O [Morphine, morphine sulfate]
- Analgesia (%) ([1]; morphine 60 mg/kg s.c. alone): 40%
- Analgesia (%) ([1]; morphine 80 mg/kg s.c. alone): 90%

Molecule: CC[C@H](C)[C@H](NC(=O)[C@H](CCCNC(=N)N)NC(=O)[C@H](CCCNC(=N)N)NC(=O)[C@H](CC(C)C)NC(=O)[C@H](Cc1ccccc1)NC(=O)CNC(=O)CNC(=O)[C@@H](N)Cc1ccc(O)cc1)C(=O)N[C@@H](CCCNC(=N)N)C(=O)N1CCC[C@H]1C(=O)N[C@@H](CCCCN)C(=O)N[C@@H](CC(C)C)C(=O)N[C@@H](CCCCN)C(=O)O [dynorphin(1-13)]
- IC50 [2]: 3.9 nM

Molecule: YGGFLRRIRP-NH2 [dynorphin(1-10) amide, Dynorphin(1-10)-NH2]
- behavior at huge doses [3]: tends to produce convulsions
- rate of metabolism by the host [4]: less quickly metabolized
- IC50 [2]: 0.24 nM

Molecule: β-endorphin
- Analgesia (%) ([5]; β-endorphin 1 μg/mouse i.c.v. alone): 10%
- Analgesia (%) ([5]; β-endorphin 2 μg/mouse i.c.v. alone): 40%
- Analgesia (%) ([5]; β-endorphin 6 μg/mouse i.c.v. alone): 100%
- ED50 of β-endorphin ([5]; β-endorphin i.c.v. alone): about 2.25 μg/mouse
